Activity calls are given as the source filed them.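 The calls were made as follows: active = AC50 no more than tenfold above the top dose tested, or full inhibition at every dose with a flat fit (cut at about 19 µM in these data); inconclusive = flat curve fit with inhibition between 30% and 70%, or poor fit; inactive = AC50 more than tenfold above the top dose tested.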
Tested on: HMLE_sh_eGFP viability, CellTiter-Glo luminescence, 72 h
Assay: viability loss of HMLE_sh_eGFP cells – cell-based, luminescence, counter-screen for HMLE_sh_ECad selective toxicity project, dose response (AID 463074);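 also: counterscreen control line to flag general toxicity for the HMLE_sh_ECad screen; potency for loss of viability as luminescence drops below DMSO wells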

SMILES	AC50
CCN(CC)CCOc1ccc(/C(=C(\Cl)c2ccccc2)c2ccccc2)cc1	1.55 µM
Cc1ccccc1CNc1ccc(C(CC(N)=O)NC(=O)c2ccc(Br)cc2)cc1[N+](=O)[O-] (stereo not given)	3.96 µM
CC1(c2ccc(O)cc2)NC(=O)N(c2ccccc2)N1 (stereo not given)	8.69 µM
CCn1c(=O)c(C(=O)NCc2ccccc2OC)c(O)c2ccccc21	17.4 µM
CC(=O)Nc1ccc(-c2csc(NC(=O)Cc3ccccc3F)n2)cc1	11.5 µM
CCn1c2ccccc2c2cc(NC(=O)c3cccc([N+](=O)[O-])c3)ccc21	3.63 µM
COCCNc1cc(-c2ccccc2)nc2cc(-c3cccc(F)c3)nn12	13 µM
NC(=O)CC(NC(=O)Cc1cccc2ccccc12)c1ccc(NCc2ccccc2)c([N+](=O)[O-])c1 (stereo not given)	5.84 µM
COc1cc(-c2ccc3c(=O)c4ccccc4n(C)c3c2)cc(OC)c1OC	8.21 µM
O=C(CCOc1ccccc1)N1CCN(c2ccc(O)cc2)CC1	3.25 µM
COc1cc(CNCCc2ccccc2)cc(Cl)c1OCc1ccccc1	4.84 µM
Cc1cc(Nc2cccc(Cl)c2)nc(NCc2ccccc2)n1	3.73 µM
COc1ccccc1/C=C1\SC(=O)N(CCC(=O)NCCCn2ccnc2)C1=O	19.5 µM
Cc1ccc(N/N=C/c2cccnc2)cc1	6.14 µM
CCN(Cc1ccccc1)c1ccc(/C=N/NC(=S)NC(C)C)cc1	4.6 µM
CC(O)CC(C(=O)NNc1ccccc1)C(=O)NNc1ccccc1 (stereo not given)	1.87 µM
O=C(Nc1ccc(OC(F)F)c(Cl)c1)Nc1ccc2c(c1)OCO2	3.14 µM
ClC1=C(Cl)C2(Cl)C3C(Cl)C=CC3C1(Cl)C2(Cl)Cl (stereo not given)	6.29 µM
c1ccc(CNc2c(-c3cccc(SC4CCCCC4)c3)nc3ccccn23)cc1	3.6 µM
CCCNCC1C(Oc2ccc(Cl)cc2Cl)C(=O)N1c1cccc(C)c1C (stereo not given)	7.2 µM
CC(=O)c1ccc(-c2ccc([C@H]3[C@@H]4C=CCC[C@@]4(C)C(=O)N3Cc3ccccc3)c(F)c2)cc1	4.17 µM
Cc1ccc(S(=O)(=O)N2CCCCC2)cc1NC(=O)Cn1ncc(Cl)c(Cl)c1=O	2.44 µM
Cc1cccc(NC(=S)NCC(C)CSc2ccc(Cl)cc2)c1 (stereo not given)	7.05 µM
CC(C)c1ccccc1OCC(O)CN(CC(O)COc1cccc2ccccc12)C(C)C (stereo not given)	3.47 µM
COc1ccc(-c2sc3cc4c(cc3c2-c2ccc(OCCN3CCOCC3)cc2)OCO4)cc1	0.254 µM
COc1cc(CNCCc2c[nH]c3ccccc23)ccc1OCc1ccccc1F	3.64 µM
O=C(/C=C/c1ccccc1)NC(NC(=S)Nc1cc(Cl)ccc1Cl)C(Cl)(Cl)Cl (stereo not given)	6.28 µM

SMILES	AC50
Oc1nc(Nc2cccc(Cl)c2)sc1/C=C1\C=Nc2ccccc21	3.78 µM
CC(C)=CCCC1(C)C=Cc2c(c(C)cc3c2[nH]c2cc(O)ccc23)O1 (stereo not given)	6.29 µM
COc1cc(C[C@H](C)[C@H](C)Cc2ccc3c(c2)OCO3)ccc1O	6.66 µM
Cc1ccccc1NCc1ccc([N+](=O)[O-])s1	10.6 µM
CCCCCc1cc(=O)oc2c(C(CCN3CCCC(C)C3)c3cc(OC)c(OC)c(OC)c3)c(OC)cc(OC)c12 (stereo not given)	7.18 µM
O=C(Nc1ccc(Cl)c(Cl)c1)O/N=C/c1ccncc1	10.1 µM
Cc1ccc(OCCN2CCN(c3nc(NCc4ccco4)c4ccccc4n3)CC2)cc1	4.66 µM
CCCCc1ccc(N=N/C(C(=O)Nc2ccc(NC(C)=O)cc2OC)=C(/C)O)cc1	17.7 µM
CC1CC/C(=C\c2ccc3c(c2)OCO3)C(=O)/C1=C/c1ccc2c(c1)OCO2 (stereo not given)	5.09 µM
N#C/C(=C/c1cn(-c2ccccc2)nc1-c1cccc(OCc2ccccc2)c1)C(=O)NCCCn1ccnc1	6.25 µM
CCCc1cc(-c2nc(-c3ccc(Cl)cc3)cs2)ccn1	13 µM
COc1ccc(N/N=C/c2c(O)n(-c3ccc(C)c(C)c3)c(=O)[nH]c2=O)cc1	1.12 µM
COc1ccc(C(=O)NNc2ccccc2)cc1OC	1.83 µM
Oc1ccc(Cl)cc1-c1cc(-c2cccc(Br)c2)n[nH]1	6.39 µM
CCCCCCc1cc2cc(C(=O)Nc3ccccc3)c(=O)oc2cc1O	2.01 µM
Cn1nnnc1Sc1ncnc2scc(-c3cccc(Br)c3)c12	3.14 µM
Cc1ccn2c(Nc3ccccc3)c(-c3ccccn3)nc2c1	4.57 µM
CCOC(=O)c1c(CSc2ccc(C)cc2)oc2ccc(O)cc12	5.05 µM
CCCCc1ccc(NC(=O)Nc2cc(C)nn2C)cc1	2.09 µM
CC(=O)Nc1sc(C)c(C)c1C(=O)OCC(=O)N(CC(C)C)c1c(N)n(Cc2ccccc2)c(=O)[nH]c1=O	2.85 µM
CCC(=O)Nc1ccc(C(=O)Cn2ncc(Cl)c(Cl)c2=O)cc1	7.77 µM
Cc1nc2ccccc2n1-c1nc(-c2ccco2)cc(C(F)(F)F)n1	0.817 µM
Cc1ccc(NC(=S)NC(NC(=O)Cc2cccc3ccccc23)C(Cl)(Cl)Cl)cc1 (stereo not given)	3.41 µM
CCCCNc1c(-c2cccc(-c3cc(C(C)=O)cs3)c2)nc2ccc(C)cn12	3.48 µM
CSc1ccccc1C(=O)Nc1cc(C)ccc1C	> 19.5 µM (inactive)
CC(C)(C)OC(=O)NCc1ccc(NC(=O)c2nc[nH]c2C(=O)NCCCNC(=O)c2[nH]cnc2C(=O)Nc2ccc(CNC(=O)OC(C)(C)C)cc2)cc1	1.92 µM
COc1ccc(CCNc2ccc(C(CC(N)=O)NC(=O)c3ccc(Br)cc3)cc2[N+](=O)[O-])cc1 (stereo not given)	11.7 µM

SMILES	AC50
COc1ccc(C(C)NCCC(c2ccc(OC(C)C)cc2)c2ccccc2OC)cc1 (stereo not given)	5.44 µM
CC(=O)c1ccc(-c2ccc([C@H]3[C@H]4C=CC[C@@H](C)[C@@H]4C(=O)N3Cc3ccccc3)c(F)c2)cc1	6.13 µM
Cc1cccc(-c2nc(Nc3cccc(O)c3)c3ccccc3n2)c1	5.27 µM
Cc1ccccc1C(=O)Nc1ccc(-c2nc3ccc(C(=O)c4ccccc4)cc3[nH]2)cc1	1.8 µM
CC(C)(C)[C@H](N)C(=O)N[C@H]1CCC2C3CC=C4C[C@@H](O)CC[C@]4(C)C3CC[C@@]21C (stereo not given in full)	7.74 µM
CC(=O)c1ccc(-c2cc([C@H]3[C@H]4C=CC[C@@H](C)[C@@H]4C(=O)N3Cc3ccccc3)ccc2F)cc1	6.87 µM
O=[N+]([O-])c1ccc(N2N=C(c3ccccc3)CC2c2ccccc2O)cc1 (stereo not given)	2.51 µM
CCc1nc(N2CCC(C)CC2)c2oc3ccccc3c2n1	7.06 µM
C=CCn1c(O)c(C2=c3ccccc3=NC2=O)sc1=Nc1ccc(O)cc1	6.76 µM
COC(=O)Nc1nc2ccc(-c3n[nH]c(=O)c4ccccc34)cc2[nH]1	1.88 µM
Cc1nn(Cc2ccc(Cl)c(Cl)c2)c(C)c1NC(=O)c1cc(-c2ccc3c(c2)OCO3)on1	1.56 µM
Cc1ccc(C(C)C)c(OCc2nn(CC(=O)c3ccc(OC(F)F)cc3)c3[n+]2CCCCC3)c1	4.17 µM
O=[N+]([O-])c1ccccc1-c1ccc(C(=S)N2CCN(c3ccccc3)CC2)o1	> 19.5 µM (inactive)
CC(C)Oc1cccc(C(=O)NC(=S)Nc2ccccc2N2CCOCC2)c1	13.9 µM
COc1ccc(Nc2nc(N)c([N+](=O)[O-])c(NC3CCCCC3)n2)cc1	4.58 µM
COc1ccc([N+](=O)[O-])cc1Nc1c2ccccc2nc2ccccc12	1.43 µM
COC(=O)c1cccc(Nc2cc(C)nc(-c3ccccc3O)n2)c1	8.82 µM
C=CCn1c2ccccc2c(=O)c2cc(C#Cc3cc(OC)cc(OC)c3)ccc21	11.1 µM
Cc1ccccc1CNc1ccc(C(CC(N)=O)NC(=O)c2ccccc2)cc1[N+](=O)[O-] (stereo not given)	6.24 µM
CCCc1nc(NC2CCCCC2)c(C#N)c2c1COC(C)(C)C2	7.68 µM
CC(C)(C)c1cc(C(=O)N/N=C/c2ccccc2O)n(-c2ccccc2)n1	4.41 µM
CCCOc1c(Cl)cc(C(=O)Nc2ccc3c(c2)OCO3)cc1OCC	5.39 µM
CCN1CCN(c2ccc(NC(=O)CCc3c(C)nc4c(-c5ccc(F)cc5)c(C)nn4c3C)cc2)CC1	5.22 µM
CC12CCC(C/C1=N\N=C1\NC(=O)/C(=C\c3ccc(Cl)cc3)S1)C2(C)C (stereo not given)	3.25 µM
COc1ccc(/C=C/C(=O)c2ccc([N+](=O)[O-])o2)cc1OC	2.47 µM
CC1(C)Cc2c(c(N3CCOCC3)nc3sc4c(NN)ncnc4c23)CS1	11.4 µM
COC(=O)C1=C(C)N(Cc2ccccc2)C(=NCCc2c[nH]c3ccccc23)N[C@H]1c1cccc(F)c1	7.06 µM

SMILES	AC50
COc1ccc(C2=Nn3c(nnc3-c3ccccc3F)SC2)cc1OC1CCCC1	5.54 µM
Cc1cccc(-c2nc(C#N)c(NC3CCCCC3)o2)c1	19.4 µM
CCOc1ccc(C(=O)CCC(=O)N2CCN(c3ccc(O)cc3)CC2)cc1	2.49 µM
CC[C@H](CO)Nc1nc(Nc2cccc(Cl)c2)c2ncn(C(C)C)c2n1	6.74 µM
COc1ccc(-c2cc(C3CCN(c4ccc(C(C)=O)cc4[N+](=O)[O-])CC3)[nH]n2)cc1	8.83 µM
Cc1ccc(C(C)C)c(OCc2ccc(C(=O)N/N=C/c3ccc(O)c(O)c3)cc2)c1	4.66 µM
CC(C)=CCCC1(C)C=Cc2c(ccc3c2[nH]c2cc(O)c(C)cc23)O1 (stereo not given)	3.58 µM
Clc1ccccc1Cn1c(/C=C/c2ccco2)nc2ccccc21	2.19 µM
O=C(CCSc1ccc(Cl)cc1)N1CCN(c2ccc(O)cc2)CC1	1.48 µM
COc1ccc(NC(=O)c2nc[nH]c2C(=O)N[C@@H](CC(C)C)C(=O)OC(C)(C)C)cc1	8.85 µM
CCC(O)(CC)C(=O)N/N=C/c1cc(Br)cc(Br)c1O	19.8 µM
CCCCNc1nc(Nc2ccc(C)c(Cl)c2)c2cnn(C)c2n1	11.5 µM
CC(C)C[C@H](CO)N(Cc1ccccc1)S(=O)(=O)N(Cc1ccccc1)[C@@H](CO)CC(C)C	3.49 µM
O=[N+]([O-])c1cc(-c2cnc3ccccc3n2)ccc1Oc1ccc(Cl)cc1	3.38 µM
OC1CCN(c2cc(-c3ccccc3)nc3cc(-c4ccc(F)cc4)nn23)CC1	7.31 µM
COC(=O)c1ccc(/C=C/c2c(-c3ccsc3)oc3ccc(N4CCOCC4)cc23)cc1	6.37 µM
CCOc1ccc(/C=N/NC(=O)COc2ccccc2-c2ccccc2)cc1	6.53 µM
CCOC(=O)/C(=C\c1ccc([N+](=O)[O-])cc1)C(=O)c1cc(C(C)=O)c(Nc2ccccc2)s1	1.07 µM
Cc1cc(N)n(-c2ccc(S(N)(=O)=O)cc2[N+](=O)[O-])n1	> 19.5 µM (inactive)
Cc1ccc2c(c1)c1c(n2CC(O)CNC2CCCCC2)CCCC1 (stereo not given)	8.31 µM
O=C(Cn1ncc(Cl)c(Cl)c1=O)N1CCN(S(=O)(=O)c2ccc3ccccc3c2)CC1	6.11 µM
CCCCSc1nc(C)cc(SCC(=O)N/N=C/c2cccc(OC)c2O)n1	11.8 µM
O=C(NNC(=O)c1cc(Cl)ccc1O)c1ccc(NS(=O)(=O)c2cccs2)cc1	8.13 µM
COc1ccc(OC)c(-c2csc(NC(=O)c3ccc(F)cc3)n2)c1	6.89 µM

— PubChem BioAssay AID463074 (Broad Institute, 2010)
